From patent US20260053794A1, “SOMATOSTATIN RECEPTOR 2 AGONISTS AND USES THEREOF” (Exelixis, Inc., priority 2022, published 2026)

Target: T1, Somatostatin Receptor 2 (SSTR2) (Homo sapiens, UniProt P30874)
T1 construct: expressed in transfected cells
Assay: Biochemical Assay for Activation of Somatostatin Receptor 2 (SSTR2), Cisbio HTRF cAMP assay
Assay type: cell-based
Conditions: average pEC50; HTRF cAMP assay in stably-transfected cell line expressing SSTR2; cells incubated with compounds for 1-2h
Description: Biochemical Assay for Activation of Somatostatin Receptor 2 (SSTR2)
Agonistic activation of SSTRs leads to an […] production of intracellular cAMP levels. Cisbio's homogeneous time-resolved fluorescence (HTRF) cAMP assay was used to measure cAMP concentration in an high-throughput format. Increase in intracellular cAMP concentrations was measuring using a stably-transfected cell line expressing SSTR2. Test compounds were dissolved in DMSO. Cells were incubated with compounds for 1-2h, and subsequently competitive binding of cAMP produced due to the activation of SSTR2 by the test compounds was measured using the Cisbio cAMP Gs dynamic assay system (Perkin Elmer, Bedford, MA).
The average pEC50 was determined for the test compounds.

T1 sequence (P30874 whole entry, species assumed): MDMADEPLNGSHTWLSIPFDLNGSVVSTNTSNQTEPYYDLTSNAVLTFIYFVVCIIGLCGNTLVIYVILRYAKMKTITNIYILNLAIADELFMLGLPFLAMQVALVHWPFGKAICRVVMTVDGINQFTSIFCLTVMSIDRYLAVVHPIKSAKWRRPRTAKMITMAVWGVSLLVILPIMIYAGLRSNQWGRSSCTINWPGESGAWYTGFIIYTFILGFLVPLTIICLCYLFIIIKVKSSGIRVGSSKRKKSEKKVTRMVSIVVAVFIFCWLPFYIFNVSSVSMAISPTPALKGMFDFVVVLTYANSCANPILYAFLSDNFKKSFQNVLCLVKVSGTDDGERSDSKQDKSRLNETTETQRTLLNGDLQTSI

Compound: Cc1cc(F)cc(-c2cncc(N3Cc4ccccc4C3)c2N2CCC(N)CC2)c1 [Compound 119]
- EC50: 0.0501 nM

Compound: COc1cc(F)cc(-c2cnc3ccc(-c4cc(F)cc(C(N)=O)c4)cc3c2O[C@@H]2CC[C@H](N)C2)c1 [Compound 5]
- EC50: 3.16 nM

Compound: Cc1cc(F)cc(-c2cnc3ccc4cc3c2N2CCC(CC2)NCC[C@H](N=[N+]=[N-])COc2c(C#N)cccc2-4)c1 (single isomer, unassigned) [Compound 97]
- EC50: 2.51 nM

Compound: COc1cc(F)cc(-c2cnc3cc(-c4ccc5[nH]c(=O)[nH]c5c4)oc3c2N2CCC(N)CC2)c1 [Compound 130]
- EC50: 100 nM

Compound: Cn1c(-c2cccc(C#N)c2O)nc2c(N3CCC(NC(=O)OC(C)(C)C)CC3)c(-c3cc(F)cc(F)c3)cnc21 [Compound 42]
- EC50: > 10000 nM

Compound: Cc1cc(F)cc(-c2cnc3c(c2N2CCC(N)CC2)C(=O)N(c2ccc(F)c(F)c2)CC3)c1 [Compound 111]
- EC50: 15.8 nM

Compound: N#Cc1cccc(-c2ccc3ncc(-c4cc(F)cc(F)c4)c(N4CC5(CNC5)C4)c3c2)c1O [Compound 137]
- EC50: > 10000 nM

Compound: O=C1NCCNC2CCN(CC2)c2c(-c3cc(F)cc(F)c3)cnc3ccc(cc23)-c2cccnc21 [Compound 79, 2^3-(3,5-difluorophenyl)-4,7-diaza-2(6,4)-quinolina-1(3,2)-pyridina-3(1,4)-piperidinacyclooctaphan-8-one]
- EC50: > 10000 nM

Compound: Cc1cc(F)cc(-c2cnc3ccc4cc3c2N2CCC(CC2)NCCCCOc2ccccc2-4)c1 [Compound 76]
- EC50: 0.0794 nM

Compound: Cc1cc(F)cc(-c2cnc3ccc(-c4cc(F)cc(C(N)=O)c4)cc3c2O[C@H]2C[C@@H](N)C2)c1 [Compound 18]
- EC50: 12.6 nM

Compound: COc1cc(F)cc(-c2cnc3c(nc(-c4ccc5[nH]c(=O)[nH]c5c4)n3C)c2N2CCC(N)CC2)c1 [Compound 32]
- EC50: > 10000 nM

Compound: Cc1cc(C)cc(-c2cnc3c(c2N2CC[C@H](N)C2)C(=O)N(c2cc(C)cc(C)c2)CC3)c1 [Compound 116]
- EC50: 1260 nM

Compound: N#Cc1cccc(-c2ccc3ncc(-c4cc(F)cc(F)c4)c(-c4ccc(N)cn4)c3c2)c1O [Compound 123]
- EC50: > 10000 nM

Compound: Cn1c(-c2cccc(Br)c2O)nc2ncc(-c3cc(F)cc(F)c3)c(N3CCC(N)CC3)c21 [Compound 45]
- EC50: 398 nM

Compound: CO[C@@H]1CN(c2c(-c3cc(C)cc(F)c3)cnc3c2nc(-c2ccc4[nH]c(=O)[nH]c4c2)n3C)CC[C@H]1N [Compound 27]
- EC50: > 10000 nM

Compound: NC(=O)c1cc(F)cc(-c2cc3ncc(-c4cc(F)cc(F)c4)c(N4CCC(N)CC4)c3o2)c1 [Compound 128]
- EC50: 100 nM

Compound: Cc1cc(F)cc(-c2cnc3ccc4cc3c2N2CCC(CC2)NC[C@H](CO)CCOc2c(C#N)cccc2-4)c1 (single isomer, unassigned) [Compound 91]
- EC50: 6.31 nM

Compound: Cc1cc(F)cc(-c2cnc3c(c2N2CCC(N)CC2)-c2nc4cc(F)c(F)cc4n2CC3)c1 [Compound 107, 1-(9,10-difluoro-2-(3-fluoro-5-methylphenyl)-5,6-dihydrobenzo [4,5]imidazo[2,1-f][1,6]naphthyridin-1-yl)piperidin-4-amine]
- EC50: > 79.4 nM

Compound: Cn1c(-c2cccc(C#N)c2O)nc2c(N3CCC(N)CC3)c(-c3cc(F)cc(F)c3)cnc21 [Compound 43]
- EC50: 6310 nM

Compound: N#Cc1cccc2c1OCCCCCNC1CCN(CC1)c1c(-c3cc(F)cc(F)c3)cnc3ccc-2cc13 [Compound 71]
- EC50: 0.158 nM

Compound: CN1CCCCNC2CCN(CC2)c2c(-c3cc(F)cc(F)c3)cnc3ccc(cc23)-c2cccc(n2)C1=O [Compound 82, 24-(3,5-difluorophenyl)-11-methyl-2,6,11,22,27-pentaazapentacyclo[16.6.2.2^2,^5.1^13,^17.0^21,^25]nonacosa-1(24),13(27),14,16,18(26),19,21(25),22-octaen-12-one]
- EC50: 25.1 nM

Compound: NC1CCN(c2c(-c3cc(F)cc(F)c3)cnc3ccc(C4=CC=CC5(Cl)C(=O)NCCN45)cc23)CC1 (stereo not shown) [Compound 152]
- EC50: 7.94 nM

Compound: Cc1cc(F)cc(-c2cnc3[nH]c(-c4cc(F)cc(C(N)=O)c4)nc3c2N2CCC(N)CC2)c1 [Compound 61]
- EC50: 50.1 nM

Compound: CN1CCCCNC2CCN(CC2)c2c(-c3cc(F)cc(F)c3)cnc3ccc(cc23)-c2cccnc2C1=O [Compound 85]
- EC50: 6310 nM

Compound: COCOc1c(C#N)cccc1-c1ccc2ncc(-c3cc(F)cc(F)c3)c(OC3CCCC(NC(=O)OC(C)(C)C)C3)c2c1 (stereo not shown) [Compound 141]
- EC50: > 10000 nM

Compound: N[C@@H]1CCN(c2c(-c3cc(F)cc(F)c3)cnc3c2C(=O)N(c2ccc(F)c(F)c2)CC3)C1 [Compound 113]
- EC50: > 10000 nM

Compound: Cc1cc(F)cc(-c2cnc3ccc4cc3c2N2CCC(CC2)NCCNC(=O)Oc2ccccc2-4)c1 [Compound 87, 23-(3-fluoro-5-methylphenyl)-4-oxa-6,9-diaza-2(4,6)-quinolina-1(1,4)-piperidina-3(1,2)-benzenacyclononaphan-5-one]
- EC50: 0.251 nM

Compound: CO[C@@H]1CN(c2c(-c3cc(F)cc(F)c3)cnc3c2nc(-c2cccc(C#N)c2O)n3C)CC[C@H]1N [Compound 23, 3-(7-((3R,4R)-4-amino-3-methoxypiperidin-1-yl)-6-(3,5-difluorophenyl)-3-methyl-3H-imidazo[4,5-b]pyridin-2-yl)-2-hydroxybenzonitrile]
- EC50: > 10000 nM

Compound: N#Cc1cccc(-c2ccc3ncc(-c4cc(F)cc(F)c4)c(-n4ccc(CN)c4)c3c2)c1O [Compound 144]
- EC50: 1260 nM

Compound: N[C@H]1CC[C@@H](Oc2c(-c3cc(F)cc(F)c3)cnc3ccc(-c4cc(F)cc(F)c4)cc23)C1 [Compound 13]
- EC50: 100 nM

Compound: Cc1cc(F)cc(-c2cnc3[nH]c(-c4cccc(Br)c4O)nc3c2N2CCC(N)CC2)c1 [Compound 60]
- EC50: 3.16 nM

Compound: NC1CCN(c2c(-c3cc(F)cc(F)c3)cnc3c(CO)cc(-c4cc(F)cc(F)c4)cc23)CC1 [Compound 160]
- EC50: 0.0251 nM

Compound: Cc1cc(F)cc(-c2cnc3ccc(-c4cc(F)cc(C(N)=O)c4)cc3c2O[C@@H]2CC[C@H](N)C2)c1 [Compound 2]
- EC50: 1 nM

Compound: NC1CCN(c2c(-c3cc(F)cc(F)c3)cnc3ccc(C4=CC=CN5CCNC(=O)C45O)cc23)CC1 (stereo not shown) [Compound 158]
- EC50: 501 nM

Compound: Cc1cc(F)cc(-c2cnc3c(nc(-c4cccc(C#N)c4O)n3C)c2N2CCC(N)CC2)c1 [Compound 37]
- EC50: 316 nM

Compound: CC(N)CCN1CCc2c(-c3cc(F)cc(F)c3)ccc3ncc(-c4cc(F)cc(F)c4)c1c23 (stereo not shown) [Compound 155]
- EC50: 631 nM

Compound: Cc1cc(F)cc(-c2cnc3ccc4cc3c2N2CCC(CC2)NCC[C@H](O)COc2c(C#N)cccc2-4)c1 (single isomer, unassigned) [Compound 103]
- EC50: 3980 nM

Compound: N[C@H]1CC[C@@H](Oc2c(-c3cc(F)cc(F)c3)cnc3ccc(-c4ccc5[nH]c(=O)[nH]c5c4)cc23)C1 [Compound 11]
- EC50: 398 nM

Compound: Cc1cc(C)cc(-c2cnc3c(c2N2CC[C@@H](N)C2)C(=O)N(c2cc(C)cc(C)c2)CC3)c1 [Compound 115]
- EC50: 1000 nM

Compound: Cc1cc(F)cc(-c2cnc3ccc4cc3c2N2CCC(CC2)NCC[C@@H](N)COc2c(C#N)cccc2-4)c1 (single isomer, unassigned) [Compound 98]
- EC50: 316 nM

Compound: N#Cc1cccc(-c2ccc3ncc(-c4cc(F)cc(F)c4)c(O[C@H]4CC[C@@H](N)C4)c3c2)c1O [Compound 16]
- EC50: 200 nM

Compound: Cn1c(-c2ccc3[nH]c(=O)[nH]c3c2)nc2c(N3CCC(N)CC3)c(-c3cc(F)cc(F)c3)cnc21 [Compound 39]
- EC50: > 10000 nM

Compound: N#Cc1cccc2c1NCCCNC1CCN(CC1)c1c(-c3cc(F)cc(F)c3)cnc3ccc-2cc13 [Compound 93]
- EC50: 158 nM
